Reference: patent US20250268931A1, “TRANSCRIPTIONAL INHIBITOR FOR IMMUNE-RELATED GENE” (The University of Tokyo, priority 2022, published 2025)

Assays:
[1] = system: IFN-β, IL-6 and TNF-α; assay: Cytokine concentration in culture supernatant of Poly(I:C)-stimulated peritoneal macrophages (ELISA); type: cell-based, mice; settings: 3 or 10 μM 24 h, Poly(I:C) 1 μg/mL 16 h
Method: Peritoneal macrophages were harvested from wild-type mice, and were then seeded on a 96-well plate at a cell density of 2.5×10^5 cells/well, followed by culturing for 2 hours. Thereafter, the cultured cells were washed twice with PBS. Subsequently, IRF-PIPA 3 was suspended in 10% FBS-RPMI or D-MEM to a final concentration of 3 or 10 µM, and was then added to the wells. After completion of the culture for 24 hours, Poly(I:C) was added to the cultured cells to a final concentration of 1 μg/mL, and the obtained mixture was then cultured for 16 hours. The supernatant was recovered, and the concentrations of IFN-β, IL-6, and TNF-α were then measured by ELISA.
(§1) Mouse peritoneal macrophages were harvested from 6-week-old CL57B/6 mice (CLEA Japan, Inc.) by peritoneal lavage using 7 mL of PBS (Nacalai Tesque), and the cells adhered to the culture plate by culture for 2 hours were used in experiments. The culture was carried out using an RPMI or D-MEM medium (Nacalai Tesque) containing 10% FBS (SIGMA-ALDRICH) and Penicillin-Streptomycin mixed solution (Nacalai Tesque). The CL57B/6 mice were bred in an SPF environment.
2×10^4 Raw264.7 cells were seeded on a plate, and were then treated with IRF-PIPA 1, IRF-PIPA 2, IRF-PIPA 3 or IRF-PIPA 4 for 24 hours. […] The concentration of cytokine in the culture supernatant was measured using ELISA kit (R&D SYSTEMS) according to the standard protocols. The culture supernatant was diluted with 1% BSA-PBS, as necessary, and was then analyzed. […] The concentration of cytokine in the culture supernatant was measured using ELISA kit (R&D SYSTEMS) according to the same standard protocols. On the other hand, the concentration of cytokine in mouse plasma was measured by administering 400 μg/mouse IRF-PIPA 3 into the abdominal cavity of wild-type mice, then administering 250 μg of Poly(I:C) into the same abdominal cavity 24 hours after the IRF-PIPA 3 administration, then collecting blood further 2 hours after the Poly(I:C) administration, and then measuring the cytokine concentration in the plasma using ELISA kit (R&D SYSTEMS) according to standard protocols.

[2] = system: Ifnb1, Il6, and Tnf genes; assay: Relative mRNA expression in Poly(I:C)-stimulated peritoneal macrophages (qRT-PCR); type: cell-based, mice; settings: 6 μM 24 h, Poly(I:C) 1 μg/mL 2, 4 or 6 h, qRT-PCR relative to GAPDH
Method: Using PBS, peritoneal macrophages were harvested from mice, and were then seeded on a 96-well plate at a cell density of 2.5×10^5 cells/well, followed by culturing for 2 hours. Thereafter, the cultured cells were washed twice with PBS. IRF-PIPA 3 was suspended in a 10% FBS-RPMI or MEM medium to a final concentration of 6 μM, and the obtained suspension was then added to the cells. After completion of the culture for 24 hours, Poly(I:C) was added to the cultured cells to a final concentration of 1 μg/mL. The obtained mixture was cultured for 2, 4, or 6 hours, and the cells were recovered. Using TRIsure, the recovered cells were suspended at 100 µL/well and was then recovered. Thereafter, the relative expression levels of Ifnb1, Il6, and Tnf genes were measured by qRT-PCR.
as §1
2.5×10^5 Peritoneal macrophages were seeded on a plate, and were then treated with IRF-PIPA 3 for 24 hours. […]

[3] = system: peritoneal macrophages; assay: Cytotoxic activity: dsDNA concentration and LDH activity in culture supernatant; type: cell-based, mice
Method: In order to verify the cytotoxic activity of IRF-PIPA 3, dsDNA concentration (left view in the figure) and LDH concentration (right view in the figure) in the culture supernatant were measured. The same experiment as that in FIG. 2 was carried out, and the culture supernatant was recovered. A lysate obtained by mixing 2.5×10^5 peritoneal macrophages with 90 μL of 10% FBS-RPMI or D-MEM medium and 10 μL of Lysis Buffer, and then disrupting the cells, was used as a positive control. […] Using Octet K2, the binding of each concentration of IRF-PIPA 3 shown in the figure and a target DNA sequence was analyzed. After mixing a PIPA solution with target DNA, the binding of the two substances was measured for 60 seconds. […] From changes in the binding and dissociation at each concentration over time, a Kd value was calculated as a dissociation constant indicating a binding force.
The concentration of dsDNA in the culture supernatant was measured using Nano drop one (Thermo Fisher SCIENTIFIC). In LDH assay, LDH activity was measured using Cytotoxicity LDH Assay Kit-WST (DOJINDO LABORATORIES) according to standard protocols. As a positive control, a lysate obtained by mixing 2.5×10^5 peritoneal macrophages with 90 μL of 10% FBS-RPMI or D-MEM medium and 10 μL of Lysis Buffer, and then disrupting the cells, was used.

[4] = system: IFN-β, IL-6 and TNF-α; assay: In vivo cytokine protein concentration in plasma after Poly(I:C) (ELISA); parameters: species or system mice
Method: […] Two hours after the administration of Poly(I:C), blood was collected, and individual protein concentrations of IFN-β, IL-6 and TNF-α in the plasma were then measured by an ELISA method.
2×10^4 Raw264.7 cells were seeded on a plate, and were then treated with IRF-PIPA 1, IRF-PIPA 2, IRF-PIPA 3 or IRF-PIPA 4 for 24 hours. Thereafter, the cells were stimulated with LPS (Lipopolysaccharide, SIGMA-ALDRICH) for 16 hours, and the culture supernatant was then recovered. The concentration of cytokine in the culture supernatant was measured using ELISA kit (R&D SYSTEMS) according to the standard protocols. The culture supernatant was diluted with 1% BSA-PBS, as necessary, and was then analyzed. 2.5×10^5 Mouse peritoneal macrophages were seeded on a plate, and were then treated with IRF-PIPA 3 for 16 or 24 hours. Thereafter, the cells were stimulated with Poly(I:C) (InvivoGen) for 16 hours or with mRNA vaccine (Moderna) for 20 to 24 hours, and the culture supernatant was then recovered. The concentration of cytokine in the culture supernatant was measured using ELISA kit (R&D SYSTEMS) according to the same standard protocols. On the other hand, the concentration of cytokine in mouse plasma was measured by administering 400 μg/mouse IRF-PIPA 3 into the abdominal cavity of wild-type mice, then administering 250 μg of Poly(I:C) into the same abdominal cavity 24 hours after the IRF-PIPA 3 administration, then collecting blood further 2 hours after the Poly(I:C) administration, and then measuring the cytokine concentration in the plasma using ELISA kit (R&D SYSTEMS) according to standard protocols.

[5] = system: IFN-β; assay: IFN-β transcription in peritoneal macrophages treated with mRNA vaccine against SARS-COV-2 (qRT-PCR, ELISA); type: cell-based, mice; settings: 3 μM or 10 μM, mRNA vaccine (Moderna) 1 μg/mL 20 hours
[6] = peritoneal macrophages, same experiment as FIG. 2 (3 or 10 μM)
[7] = 400 μg/mouse i.p., Poly(I:C) 250 μg/mouse i.p. 24 hours, 1, 4 or 7 days later, blood 2 h later
[8] = plasma IFN-β, IL-6, TNF-α, Poly(I:C) 1, 4 or 7 days after IRF-PIPA 3

**Q.** What does the source list for `CC(=O)Nc1cn(C)c(C(=O)Nc2cc(C(=O)NCCC(=O)Nc3cc(C(=O)Nc4cn(C)c(C(=O)NCCC(=O)Nc5cn(C)c(C(=O)NCCCC(=O)Nc6cc(C(=O)Nc7cc(C(=O)Nc8cc(C(=O)NCCC(=O)Nc9cc(C(=O)Nc%10cc(C(=O)NCCC(=O)NCCCN(C)C)n(C)c%10)n(C)c9)n(C)c8)n(C)c7)n(C)c6)n5)n4)n(C)c3)n(C)c2)n1` [IRF-PIPA 3]?
**A.** suppression of IFN-β production [1]: strongly suppresses IFN-β production in a concentration-dependent manner; suppression of IL-6 [1]: suppressed, although less strongly than IFN-β; suppression of TNF-α [1]: suppressed, although less strongly than IFN-β; relative expression level of Ifnb1 mRNA [2]: strongly suppressed induction of the expression of Ifnb1 mRNA in a concentration-dependent manner; cytotoxic activity ([3]; concentration range in which IRF-PIPA 3 shows strong suppressive action): does not exhibit cytotoxic activity; LDH activity in the culture supernatant [3, 6]: not increased at all; amount of DNA in the culture supernatant [3, 6]: not increased at all; IFN-β protein concentration in plasma [4, 7]: significantly suppressed; IL-6 protein concentration in plasma [4, 7]: significantly suppressed; TNF-α protein concentration in plasma [4, 7]: significantly suppressed; time after administration of highest suppressive effect [4, 8]: 1 days; time after administration until which the suppressive effect was sustained (attenuated) [4, 8]: ≥ 7 days; IFN-b transcription after addition of the mRNA vaccine (Ifnb1 relative expression, IFN-β concentration) [5]: strongly suppressed IFN-b transcription after addition of the mRNA vaccine in a concentration-dependent manner
